In patent publication US11260096B2, “Compositions for creatine supplementation in creatine non-responders” (ThermoLife International, LLC, priority 2019, dated 2022):
Where “and” joins values, the source holds several entries; their conditions need not be identical. Identical values can stand only once. Entries after “also recorded” stand apart in the source; their conditions may differ.

Assays:
[1] = 5-day intervention: total muscle creatine by proton magnetic resonance spectroscopy (MRS); type: in vivo, human; details: after five-day intervention vs baseline
Experimental: Ten healthy young men (age 23.6±2.9 years, body mass index 23.8±1.5 kg/m′) were recruited and signed informed consent to voluntarily participate in this double-blind, crossover, randomized controlled trial. All experimental procedures were approved by the local institutional review board, and the study was conducted in accordance with the Declaration of Helsinki. All participants had no history of creatine supplementation (or other dietary supplements) within the 4 weeks before the study commenced. All participants also had no acute or chronic diseases as evaluated by pre-participation health check and blood profiles. All participants were required to maintain their normal activity patterns and diet during the study. […]
Washout period of 7 days was employed between all trials to prevent the residual or carry-over effects of treatments across study periods. […] Creatinine anhydrous has been produced from creatine monohydrate in an autoclave (Memmert UF 55, Schwabach, Germany) at 160° C. for 72 hours, with creatinine purity>99% in a final powder, as determined by NMR spectroscopy (Bruker Avance III 400, Billerica, Mass.). […] Venous blood samples were drawn at each time point (7 points in total) for a single-dose experiment, and serum analyzed for creatine and creatinine by modified LC-MS/MS (1200 Series LC System; Agilent Technologies Inc., Santa Clara, Calif., USA). […]

[2] = single-dose pharmacokinetics experiment: serum creatine and creatinine by LC-MS/MS; type: in vivo, human; details: for AUC (serum creatine) after single-dose intervention: linear-log trapezoidal method
Experimental: (§1) Ten healthy young men (age 23.6±2.9 years, body mass index 23.8±1.5 kg/m′) were recruited and signed informed consent to voluntarily participate in this double-blind, crossover, randomized controlled trial. All experimental procedures were approved by the local institutional review board, and the study was conducted in accordance with the Declaration of Helsinki. All participants had no history of creatine supplementation (or other dietary supplements) within the 4 weeks before the study commenced. All participants also had no acute or chronic diseases as evaluated by pre-participation health check and blood profiles. All participants were required to maintain their normal activity patterns and diet during the study. The participants were required to not engaged in any exhaustive exercise 24 hours before the study commenced.
(§2) Washout period of 7 days was employed between all trials to prevent the residual or carry-over effects of treatments across study periods. For the single-dose experiment, participants were administered a liquid composition that was prepared by a researcher by dissolving a powder of their respective treatment compounds in 150 mL of lukewarm water. For the 5-day intervention, the participants received five powder sachets (one per day) containing an treatment compounds. The participants were advised to stir the content of the sachet into 150 mL of lukewarm water until the powder has dissolved and to drink the liquid composition about 30 minutes before breakfast. […] Clinical assessments for both experiments were carried out between 08:00 and 12:00 after an overnight fast of 12 hours. Venous blood samples were drawn at each time point (7 points in total) for a single-dose experiment, and serum analyzed for creatine and creatinine by modified LC-MS/MS (1200 Series LC System; Agilent Technologies Inc., Santa Clara, Calif., USA). To control for variance based on different hydration levels, all participants were restricted from water ingestion between the time of collecting the baseline sample and 120 minutes after administration of the treatment. For 5-day experiment, venous blood samples were drawn at baseline and at the various follow-up times, with serum analyzed for liver enzymes by an automated analyzer (Randox Laboratories Ltd., Crumlin, UK).
Where significant differences were found, the Tukey post-hoc test was employed to identify the differences. The area under the concentration-time curve (AUC) for serum creatine and creatinine were calculated using the linear-log trapezoidal method, with AUCs compared with one-way ANOVA. The significance level was set at P<0.05. Data were analyzed using the SPSS program (SPSS Inc., Chicago, Ill., USA).

[3] = adverse events evaluated via open-ended questionnaires; type: in vivo, human; details: 5-day intervention, single participants
Experimental: Estimated glomerular filtration rate (eGFR) was calculated by the abbreviated MDRD equation (Stevens et al., Am J Kidney Dis. 2007; 50: 21-35). […] Twelve datasets were obtained for each individual yielding a total of 120 spectra in this study. In vivo metabolite concentrations were calculated using the muscle water signal as an internal intensity reference (Wang et al., J Magn Reson. 2014, 243: 81-84). The spectra were fitted in the time domain using a nonlinear least squares algorithm ([…]) in the Java-based magnetic resonance user interface (jMRUI) software package. […] Finally, possible adverse events of the intervention (e.g. muscle cramps, bloating, diarrhea) were evaluated via open-ended questionnaires administered during the trial.

[4] = 5-day intervention: liver enzymes and estimated glomerular filtration rate (safety biomarkers); type: in vivo, human
Experimental: as §1
as §2, with “Creatinine anhydrous has been produced from creatine monohydrate in an autoclave (Memmert UF 55, Schwabach, Germany) at 160° C.” for “Clinical assessments”, “72 hours, with creatinine purity>99% in a final powder, as determined by NMR spectroscopy (Bruker Avance III 400, Billerica, Mass.). […]” for “both experiments were carried out between 08:00 and 12:00 after an overnight fast of 12 hours.”, “To control for variance based on different hydration levels, all participants were restricted from water ingestion between the time of collecting the baseline sample and 120 minutes after administration of the treatment.” left out
Estimated glomerular filtration rate (eGFR) was calculated by the abbreviated MDRD equation (Stevens et al., Am J Kidney Dis. 2007; 50: 21-35). […] In vivo metabolite concentrations were calculated using the muscle water signal as an internal intensity reference (Wang et al., J Magn Reson. 2014, 243: 81-84). […] The peak integral values of the total creatine (creatine plus phosphocreatine) signal at 3.0 ppm and the non-suppressed water signal at 4.7 ppm were quantified using curve-fitting to Gaussian lines. […]

[5] = cited from earlier work

SMILES | average increase in total muscle creatine levels [1] [%] | concentration at 60 min ([2]; male, human, in vivo, single oral dose (3 g CN + 3 g creatinine, 3 g CN or 3 g CRM), peak time, n=10 healthy men, read-out: average serum creatine concentration at 60 minutes post-administration) [µM] | change in serum creatinine during the single-dose study (in words) ([2]; single oral dose) | AUC (serum creatine) after single-dose intervention ([2]; single oral dose) [µmol·min/L] | reported side effects / adverse events (in words) ([3]; nitrate) | participants with mildly reduced kidney function (eGFR 60-89 mL/min/1.73 m^2) ([4]; 5-day intervention, n=10) [%] | eGFR ([4]; at 5-day follow-up, mean ± SD, abbreviated MDRD equation) [mL/min/1.73 m^2] | increase of total creatine content in skeletal muscles ([5]; dosages up to 30 g for a few days, human subject) | AUC for serum creatinine ([2]; single oral dose) [µmol·min/L] | reported side effects / adverse events (in words) [3] | eGFR ([4]; in vivo) [mL/min/1.73 m^2] | participants with mildly reduced kidney function (eGFR 60-89 mL/min/1.73 m^2) ([4]; in vivo) [%] | individuals who do not respond to creatine supplementation (prevalence of non-responders) ([5]; less than 10 mmol/kg dw increase in resting total muscle creatine after five days at 20 g/day)
CN(CC(=O)O)C(=N)N.O=[N+]([O-])O [CN, creatine nitrate] | 8.0 | 164 ± 12.9 | remained essentially unchanged | 622.7 ± 62.9 | irregular non-diarrheal bowel movements; also recorded: excessive sleepiness | 40.0 | 89.8 ± 8.1 |  |  |  |  |  | 
CN(CC(=O)O)C(=N)N.O [CRM, creatine monohydrate] | 2.1 |  | remained essentially unchanged | 466.3 ± 47.9 |  |  |  | more than 20% | 607.5 ± 37.7 | episodes of bloating | 91.7 ± 8.3 | 30.0 | 
CN(CC(=O)O)C(=N)N [creatine] |  |  |  |  |  |  |  |  |  |  |  |  | about 25% and 20-30%
